The target in one data set is 3CLpro (Severe acute respiratory syndrome coronavirus 2, UniProt P0DTD1). The data set can be described thus: 3CLpro fluorescence resonance energy transfer (FRET) assay. The data set is classed as biochemical, SARS-CoV-2. The conditions noted are these: for FRET-determined EC50 (3CLpro): normalized to untreated control, nonlinear regression. As to the method:
The activity of 3CLpro was measured by FRET assay (BPS Bioscience, San Diego, CA, USA) according to the manufacturer’s instructions and as previously described ([34]). […] Wells without drugs or without 3CLpro were used as positive control of 3CLpro activity and blank control, respectively. After a 30-min incubation, the 3CLpro substrate was added to each well and the plate was stored for 4 h in the dark. The fluorescence signal was acquired on an Infinite 200 PRO (Tecan, Männedorf, Switzerland) using an excitation wavelength of 360 nm and a detection wavelength of 460 nm. Relative 3CLpro was expressed as percentage of the positive control after subtraction of the blank.

Data set [1] has as its system SARS-CoV-2. In words: microbe, parasite or virus in culture. The format is cell-based.
A further data set is described as follows: in vitro. The data set is classed as cell-based. The conditions noted are these: human; African green monkey. How it is done:
Cell viability was evaluated by the MTT [3-(4,5-dimethylthiazol-2-yl)-2,5-diphenyl tetrazolium bromide] assay and by crystal violet staining as previously described ([76], [77]). Briefly, the MTT assay was conducted using the CellTiter 96 nonradioactive cell proliferation assay (MTT) (Promega; Madison, WI, USA). Cells were plated in a 96‐well plate at a concentration of 3 × 10^6 cells/mL in 100 μL of medium. The MTT solution (15 μL) was added to each well, and after 2 to 4 h, the reaction was stopped by the addition of 100 μL of 10% SDS. Absorbance values were acquired using an Infinite 200 PRO (Tecan, Männedorf, Switzerland) multimode plate reader at a 570-nm wavelength.
Data normality assumptions were tested by D’Agostino and Pearson normality test (for n > 3). Multiple-group comparisons were conducted by nonparametric Kruskal-Wallis test, followed by Dunn’s posttest, or by one-way or two-way analysis of variance (ANOVA) followed by Holm-Sidak or Dunnett posttests, respectively. Half-maximal inhibitory (IC50), effective (EC50), and cytotoxic (CC50) concentrations of the compounds were estimated by nonlinear regression after data normalization. […] Data analysis was conducted using GraphPad Prism v6 (GraphPad Software, San Diego, CA, USA). Synergy scores were calculated with the SynergyFinder web tool ([79]) using the Zero Interaction Potency (ZIP) model ([80]).

The target of data set [2] is spike protein and human ACE2 (Severe acute respiratory syndrome coronavirus 2, UniProt P0DTC2). In words: cell-based. The arrangement: species or system SARS-CoV-2; human. The conditions noted are these: 1 h preincubation, luciferase after 24 h; read-out: IC50 of S-glycoprotein-mediated cell fusion.
The subject of data set [3] is Vero E6 cells transfected with the SARS-CoV-2 S-protein. The data set can be described thus: Syncytium formation assay. The format is cell-based, African green monkey. The conditions noted are these: 1, 5, 10 μM; 24 h posttransfection.
The test system of data set [4] is SARS-CoV-2. The data set can be described thus: Replication-competent virus in supernatant (plaque assay). The data set is classed as cell-based. The conditions noted are these: Vero E6 cells, MOI 0.05, 2.5-10 μM, 24 h postinfection.
Data set [5] deals with SARS-CoV-2. The data set is classed as cell-based. The conditions noted are these: 5 to 10 μM; MTT and crystal violet; Calu-3, T84, Vero E6.
Data set [6] has as its system SARS-CoV-2. The data set can be described thus: SARS-CoV-2-infected Syrian hamsters.

pEC50, pIC50: −log10 of the molar value. Where “and” joins values, the source holds several entries; their conditions need not be identical. Identical values can stand only once. Like-named read-outs stand apart in the source and are kept apart here.

Broadly, the pIC50 is the IC50 on a negative log10 scale, so that one unit is a factor of ten. Usually CC50 stands for the concentration giving 50% cytotoxicity. For the compound `CC(C)c1nc(CN(C)C(=O)N[C@@H](CCN2CCOCC2)C(=O)N[C@H](CC[C@H](Cc2ccccc2)NC(=O)OCc2cncs2)Cc2ccccc2)cs1` [Cobicistat], the “Effect on catalytic activity of 3CLpro” value at 3CLpro (FRET assay, Fig. S3A) is “inactive”. Also, on 3CLpro, the “FRET-determined EC50 (3CLpro)” value was “Could not be calculated”. In addition, the “Effect on intracellular and supernatant viral RNA” value in the data set on SARS-CoV-2 [1] (Calu-3 cells, time course, low-micromolar concentrations, qPCR N1 and N2 primers) is “dose-dependent inhibitory effect”. In addition, in the data set on SARS-CoV-2 [1] (Severe acute respiratory syndrome coronavirus 2, Calu-3, Vero E6 and T84 cells, MOI 0.05 and 0.5, treated 2 h postinfection, 48 h, read-out: IC50 (viral RNA release in supernatant), range), the pIC50 is 5.06 to 6.24. For the same compound, the CC50 at 48 h in “in vitro” fell in the range of 38.7 to 53 µM. Further, in data set [2], the pIC50 is 5.42. Further, the Syncytium formation entry in data set [3] is listed as “decreased syncytium formation”. Further, the “Levels of replication-competent virus in supernatant” value in the data set with SARS-CoV-2 [4] is on record as “able to decrease the levels of replication-competent virus”. Further, the “Viability of infected cells” value with SARS-CoV-2 [5] is “partially rescue viability of infected cells”. Further, the “Tolerability of dosing regimen in vivo” value in the data set with SARS-CoV-2 [6] (50 mg/kg) is “well tolerated”. In the data set on SARS-CoV-2 [6] (Day 3, single animal), the “Alveolar alterations: Alveolar edema” value is 2 and 0; the “Alveolar alterations: Epithelial necrosis” value was 1 and 0 and (1); the “Alveolar alterations: Type II hyperplasia” value was 1–2 and 0; the “Pneumonia: Consolidated lung area (%)” value was 20% and 0% and <5%. In addition, in the data set on SARS-CoV-2 [6] (Day 3, single animal), the “Pneumonia: Inflammation score” value was 2–3 and (1) and 1; the “Pneumonia: Lung area affected (%)” value is 30% and <5% and 5–10%; the “Vascular alterations: Endothelialitis” value was 2–3 and (1) and 1–2; the “Vascular alterations: Perivascular edema” value is 1–2 and 0. In addition, the “Vascular alterations: Perivascular lymphocytes” value in the data set on SARS-CoV-2 [6] (Day 3, single animal) is 1–2 and 0. Moreover, in the data set on SARS-CoV-2 [6] (Day 5, single animal), the “Alveolar alterations: Alveolar edema” value was 3 and 2 and 2–3; the “Alveolar alterations: Epithelial necrosis” value was 2 and 1; the “Alveolar alterations: Type II hyperplasia” value is 2–3 and 3 and 1–2; the “Pneumonia: Consolidated lung area (%)” value was 50% and 30% and 35%. Besides, in the data set on SARS-CoV-2 [6] (Day 5, single animal), the “Pneumonia: Inflammation score” value was 3 and 2–3; the “Pneumonia: Lung area affected (%)” value was 80% and 70% and 50%; the “Vascular alterations: Endothelialitis” value is 2–3 and 3; the “Vascular alterations: Perivascular edema” value was 2–3 and 2. The “Vascular alterations: Perivascular lymphocytes” value in the data set with SARS-CoV-2 [6] (Day 5, single animal) is 2 and 1. In the data set with SARS-CoV-2 [6] (cobicistat 50 mg/kg oral daily, remdesivir 15 mg/kg i.p. daily, days 3 and 5 p.i.), the “Infectious progeny in the lung (PFU, plaque assay)” value was “significant decrease”.

`CC(C)CN(C[C@@H](O)[C@H](Cc1ccccc1)NC(=O)O[C@H]1CO[C@H]2OCC[C@H]21)S(=O)(=O)c1ccc(N)cc1` [Darunavir]: the “FRET-determined EC50 (3CLpro)” value at 3CLpro is on record as “Could not be calculated”.

What is called pEC50 is the negative decadic logarithm of the EC50, by convention in mol/L. Compound `Cc1cccc(C)c1OCC(=O)N[C@@H](Cc1ccccc1)[C@@H](O)C[C@H](Cc1ccccc1)NC(=O)[C@H](C(C)C)N1CCCNC1=O` [Lopinavir] had a pEC50 at 3CLpro of 3.66.

On to `Cc1c(O)cccc1C(=O)N[C@@H](CSc1ccccc1)[C@H](O)CN1C[C@H]2CCCC[C@H]2C[C@H]1C(=O)NC(C)(C)C` [Nelfinavir], for which the “FRET-determined EC50 (3CLpro)” value on 3CLpro is “Could not be calculated”.

As to `CCC(CC)COC(=O)[C@H](C)N[P@](=O)(OC[C@H]1O[C@@](C#N)(c2ccc3c(N)ncnn23)[C@H](O)[C@@H]1O)Oc1ccccc1` [Remdesivir, remdesivir], the pIC50 with SARS-CoV-2 [1] (Severe acute respiratory syndrome coronavirus 2, Vero C1008, Vero E6 cells, MOI 0.5, 48 h, read-out: IC50 (viral RNA expression in supernatant)) is 6.13. Further, the pIC50 in the data set with SARS-CoV-2 [1] (Severe acute respiratory syndrome coronavirus 2, T84 cells, MOI 0.5, 48 h, read-out: IC50 (viral RNA expression in supernatant)) was 6.46. Besides, in the data set on SARS-CoV-2 [6] (Day 3, single animal), the “Alveolar alterations: Alveolar edema” value is recorded as 0; the “Alveolar alterations: Epithelial necrosis” value was “(1) and 0”; the “Alveolar alterations: Type II hyperplasia” value worked out at 0; the “Pneumonia: Consolidated lung area (%)” value turned out to be 0%. In addition, in the data set with SARS-CoV-2 [6] (Day 3, single animal), the “Pneumonia: Inflammation score” value is given as “(1)”; the “Pneumonia: Lung area affected (%)” value is 5% and <5%; the “Vascular alterations: Endothelialitis” value is given as 0; the “Vascular alterations: Perivascular edema” value was “(1) and 0”. In the data set with SARS-CoV-2 [6] (Day 3, single animal), the “Vascular alterations: Perivascular lymphocytes” value was 0 and (1). Besides, in the data set with SARS-CoV-2 [6] (Day 5, single animal), the “Alveolar alterations: Alveolar edema” value was 1 and 1–2 and 2; the “Alveolar alterations: Epithelial necrosis” value amounted to 2; the “Alveolar alterations: Type II hyperplasia” value is 1 and 1–2; the “Pneumonia: Consolidated lung area (%)” value was 25% and 35% and 30%. Further, in the data set on SARS-CoV-2 [6] (Day 5, single animal), the “Pneumonia: Inflammation score” value is recorded as 2–3; the “Pneumonia: Lung area affected (%)” value is 40% and 70%; the “Vascular alterations: Endothelialitis” value is 2–3 and 2; the “Vascular alterations: Perivascular edema” value is “(1) and 1 and 2”. Also, the “Vascular alterations: Perivascular lymphocytes” value with SARS-CoV-2 [6] (Day 5, single animal) is 2 and 1–2.

At 3CLpro, `CCC[C@@]1(CCc2ccccc2)CC(O)=C([C@H](CC)c2cccc(NS(=O)(=O)c3ccc(C(F)(F)F)cn3)c2)C(=O)O1` [Tipranavir] had a pEC50 of 4.33.

Values taken from publication PMC8941859, “The FDA-Approved Drug Cobicistat Synergizes with Remdesivir To Inhibit SARS-CoV-2 Replication In Vitro and Decreases Viral Titers and Disease Progression in Syrian Hamsters” (mBio, 2022).
